Reference: ChEMBL document CHEMBL3045411, “Efficacy and effects on yield of different fungicides for control of wet bubble disease of mushroom caused by the mycoparasite Mycogone perniciosa” (2010)
≈ marks a conversion by molar mass, not a printed value.

Tested on: Mycogone perniciosa
Test: Antimicrobial activity against Mycogone perniciosa isolates assessed as inhibition of mycelial growth after 12 days
Format: functional
Conditions: 288 h, read-out: ED50 (the source's name)

Row | SMILES | EC50 [µg/mL]
1 | COC(=O)Nc1nc2ccccc2[nH]1 [CARBENDAZIM] | 0.065 (≈ 0.34 µM)
2 | COC(=O)NC(=S)Nc1ccccc1NC(=S)NC(=O)OC [THIOPHANATE METHYL] | 0.773 (≈ 2.26 µM)
3 | c1ccc2[nH]c(-c3cscn3)nc2c1 [THIABENDAZOLE] | 0.225 (≈ 1.12 µM)
4 | CC(C)NC(=O)N1CC(=O)N(c2cc(Cl)cc(Cl)c2)C1=O [IPRODIONE] | 2.69 (≈ 8.14 µM)
